Values quoted from earlier work as cited in US20050186280A1, “Method for stabilizing a composition having a biologically active epidermal growth factor as an active ingredient” (Daewoong Pharm. Co., Ltd., priority 2000, published 2005).

Details: background statement; applied to wounds

In the case of epidermal growth factor [EGF], the “half-life of EGF” value is given as “about 1 hour”.
